Laboratory results: US6946470B2, “Method of treating psychosis in a patient” (Medical and Pharmaceutical Industry Technology and …, priority 2002, dated 2005)

What was measured:
[1] = target: T1, human dopamine D2L receptors (Homo sapiens, UniProt P14416); assay: Dopamine D2L receptor binding assay ([3H]Spiperone); conditions: 30 nM, CHO cell membranes
T1 construct: expressed in transfected cells
Experimental: Dopamine D2L Receptor Binding Assay
This assay measures binding of [^3H]Spiperone to human dopamine D2L receptors. CHO cells stably transfected with a plasmid encoding the human dopamine D2L receptor were used to prepare membranes in modified Tris-HCl pH 7.4 buffer. A 20 μg aliquot of membrane, in the presence or absence of a test compound, was incubated with 0.16 nM [^3H]Spiperone for 120 minutes at 25° C. Non-specific binding was estimated in the presence of 10 μM hapoperidol. Membranes were filtered and washed three times and the filters were counted to determine [^3H]Spiperone specifically bound. [References: Grandy D K, Marchionni M A, Makam H, Stofko R E, Alfano M, Frothingham L, Fischer J B, Burker-Howie K J, Bunzow J R, Server A C. Proc. Natl. Acad. Sci. (USA) 86: 9762-9766, 1989; Bunzow J R, Van Tol H H, Grandy D K, Albert P, Salon J, Christie M, Machida C A, Neve K A, Civelli O. Nature 336: 783-787, 1988; Hayes G, Biden T J, Selbie L A, Shine J. Mol. Endocrin. 6: 920-926, 1992]

[2] = target: T2, serotonin 5-HT2 receptors (Rattus norvegicus, UniProt P14842); assay: Serotonin 5-HT2 receptor binding assay ([3H]Ketanserin); conditions: 30 nM, rat whole brain membranes
T2 construct: from tissue; host or cells: rat whole brain (except cerebellum) membranes
Experimental: Serotonin 5-HT2 Receptor Binding Assay
This assay measures binding of [^3H]Ketanserin to serotonin 5-HT2 receptors. Whole brain (except cerebellum) membranes of male Wistar derived rats weighing 175±25 g were prepared in Tris-HCl pH 7.7 buffer. A 10 mg aliquot of membrane was incubated with 0.5 nM [^3H]Ketanserin for 40 minutes at 25° C. Non-specific binding was estimated in the presence of 1 μM Ketanserin. Membranes were filtered and washed three times and the filters were counted to determine [^3H]Ketanserin specifically bound. [Reference: Leysen J E, Niemegeers C J, Van Nauten J M, Laduron D M. Mol. Pharmacol. 21: 301-314, 1982]

[3] = system: apomorphine-induced climbing behavior in mice; assay: Effects on apomorphine-induced climbing behavior; type: in vivo; conditions: for Inhibition % of apomorphine-induced climbing behavior: apomorphine 1 mg/kg SC 60 min after dosing; for Agonist activity (score): group score 0-6, 30 to 60 minutes post-dosing, 3 mice
Experimental: Climbing behavior was scored 0-2 for each animal from 30 to 60-minutes post-dosing: all four paws on floor=0, both forefeet holding the wall=1, all four paws on wall=2. Consequently, maximum possible group score was 2×3 mice=6. A score of 3 or more (≧3) during this 30 minute observation period denotes dopamine-agonist activity. Mice in which no significant dopamine agonist activity occurred were then used to determine antagonistic activity. […] [Reference: Psychopharmacology 50: 1-6, 1976] Percentage inhibition of test substance on apomorphine-induced climbing behavior is calculated as follows: [formula]

T2 sequence (P14842 whole entry): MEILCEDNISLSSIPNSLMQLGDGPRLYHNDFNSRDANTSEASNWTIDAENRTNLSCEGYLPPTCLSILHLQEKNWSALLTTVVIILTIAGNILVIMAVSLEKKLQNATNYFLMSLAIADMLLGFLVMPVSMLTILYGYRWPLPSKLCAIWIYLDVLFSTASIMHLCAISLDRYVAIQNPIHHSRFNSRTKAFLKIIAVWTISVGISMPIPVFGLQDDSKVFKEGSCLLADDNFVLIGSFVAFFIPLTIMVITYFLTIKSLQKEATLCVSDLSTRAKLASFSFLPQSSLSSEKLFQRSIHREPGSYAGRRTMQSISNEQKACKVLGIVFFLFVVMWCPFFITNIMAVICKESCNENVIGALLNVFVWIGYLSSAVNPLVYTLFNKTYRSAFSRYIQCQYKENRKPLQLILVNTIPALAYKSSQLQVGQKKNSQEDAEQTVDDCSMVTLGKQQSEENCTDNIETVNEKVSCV
T1 sequence (P14416 whole entry): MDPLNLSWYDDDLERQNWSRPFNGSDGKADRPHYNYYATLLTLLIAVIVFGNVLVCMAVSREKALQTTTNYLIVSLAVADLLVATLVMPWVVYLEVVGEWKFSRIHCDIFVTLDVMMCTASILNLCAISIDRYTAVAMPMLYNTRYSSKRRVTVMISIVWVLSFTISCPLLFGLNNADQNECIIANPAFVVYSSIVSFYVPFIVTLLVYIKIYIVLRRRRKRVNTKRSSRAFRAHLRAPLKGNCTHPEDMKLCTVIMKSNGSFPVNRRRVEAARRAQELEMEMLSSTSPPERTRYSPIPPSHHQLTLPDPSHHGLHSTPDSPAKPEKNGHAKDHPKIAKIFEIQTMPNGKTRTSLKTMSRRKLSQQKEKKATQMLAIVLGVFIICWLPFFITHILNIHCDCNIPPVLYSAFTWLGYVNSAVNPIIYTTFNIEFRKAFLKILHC

| Structure (SMILES) | inhibition at 0.03 µM [1] | inhibition at 0.03 µM [2] | Inhibition % D2L [1] | Inhibition % 5-HT2 [2] | also measured |
| --- | --- | --- | --- | --- | --- |
| O=C1Nc2ccccc2C2=NC(CN3CCN(Cc4ccccc4)CC3)CN12 (stereo not shown) [PDC-121, 2-[4-benzyl-1-piperazinyl]methyl-2,3-dihydroimidazo[1,2-c]quinazolin-5(6H)-one] | 18% | 21% | – | – | – |
| O=C1Nc2ccccc2C2=NC(CC3CCC4(CCCCC4)NC3)CN12 (stereo not shown) [PDC-122, 3-{2,3-dihydroimidazo[1,2-c]quinazolin-5(6H)-one-2-yl}methyl-azaspiro-[5,5]undecane] | 13% | 2% | – | – | – |
| O=C1Nc2ccccc2C2=NC(CN3CCN(Cc4ccc5c(c4)OCO5)CC3)CN12 (stereo not shown) [PDC-123, 2-[4-piperonyl-1-piperazinyl]methyl-2,3-dihydroimidazo[1,2-c]-quinazolin-5(6H)-one] | 11% | 4% | – | – | – |
| O=C1Nc2ccccc2C2=NC(CN3CCC(Cc4ccccc4)CC3)CN12 (stereo not shown) [PDC-124, 2-[4-Benzyl-1-piperidinyl]methyl-2,3-dihydroimidazo[1,2-c]quinazolin-5(6H)-one] | 14% | 62% | – | – | Inhibition % of apomorphine-induced climbing behavior ([3]; PO 30 mg/kg): 50%; Agonist activity (score) ([3]; PO 30 mg/kg): 0 |
| O=C1Nc2ccccc2C2=NC(CNC3CCN(Cc4ccccc4)CC3)CN12 (stereo not shown) [PDC-126, 2-[1-benzylpiperidin-4-yl]aminomethyl-2,3-dihydroimidazo[1,2-c]-quinazolin-5(6H)-one] | 29% | 11% | – | – | – |
| O=C1Nc2ccccc2C2=NC(CN3CCN(Cc4ccc(F)cc4)CC3)CN12 (stereo not shown) [PDC-127, 2-[4-(4-fluorobenzyl)-1-piperazinyl]methyl-2,3-dihydroimidazo[1,2-c]quinazolin-5(6H)-one] | 11% | 20% | – | – | – |
| O=C(c1ccc(F)cc1)C1CCN(CC2CN3C(=O)Nc4ccccc4C3=N2)CC1 (stereo not shown) [PDC-130, 2-[1-(4-p-fluorobenzoyl)piperidinyl]methyl-2,3-dihydroimidazo[1,2-c]-quinazolin-5(6H)-one] | – | – | 16% | 88% | Inhibition % of apomorphine-induced climbing behavior ([3]; PO 1 mg/kg): 0%; Agonist activity (score) ([3]; PO 1 mg/kg): 0; Inhibition % of apomorphine-induced climbing behavior ([3]; PO 3 mg/kg): 60%; Agonist activity (score) ([3]; PO 3 mg/kg): 0; Inhibition % of apomorphine-induced climbing behavior ([3]; PO 10 mg/kg): 100%; Agonist activity (score) ([3]; PO 10 mg/kg): 0; Inhibition % of apomorphine-induced climbing behavior ([3]; PO 30 mg/kg): 100%; Agonist activity (score) ([3]; PO 30 mg/kg): 0 |
| O=C1Nc2ccccc2C2=NC(CN3CCN(C(c4ccccc4)c4ccc(Cl)cc4)CC3)CN12 (stereo not shown) [PDC-131, 2-[1-(4-chlorobenzhydryl)piperazinyl]methyl-2,3-dihydroimidazo[1,2-c]-quinazolin-5(6H)-one] | – | – | 10% | 47% | – |
| COc1ccc(N2CCN(CC3CN4C(=O)Nc5ccccc5C4=N3)CC2)cc1 (stereo not shown) [PDC-132, 2-[1-(4-methoxyphenyl)piperazinyl]methyl-2,3-dihydroimidazo[1,2-c]-quinazolin-5(6H)-one] | – | – | 15% | 5% | – |
